One block for each molecule: values may come before it.
Experiments:
Assay type in all cases: functional, cell-based
[1] = biological target: T1, Solute carrier organic anion transporter family member 1A1 (Rattus norvegicus, UniProt P46720); test: TP_TRANSPORTER: inhibition of Enalapril uptake in Oatp1-expressing HeLa cells
T1 sequence (P46720 whole entry): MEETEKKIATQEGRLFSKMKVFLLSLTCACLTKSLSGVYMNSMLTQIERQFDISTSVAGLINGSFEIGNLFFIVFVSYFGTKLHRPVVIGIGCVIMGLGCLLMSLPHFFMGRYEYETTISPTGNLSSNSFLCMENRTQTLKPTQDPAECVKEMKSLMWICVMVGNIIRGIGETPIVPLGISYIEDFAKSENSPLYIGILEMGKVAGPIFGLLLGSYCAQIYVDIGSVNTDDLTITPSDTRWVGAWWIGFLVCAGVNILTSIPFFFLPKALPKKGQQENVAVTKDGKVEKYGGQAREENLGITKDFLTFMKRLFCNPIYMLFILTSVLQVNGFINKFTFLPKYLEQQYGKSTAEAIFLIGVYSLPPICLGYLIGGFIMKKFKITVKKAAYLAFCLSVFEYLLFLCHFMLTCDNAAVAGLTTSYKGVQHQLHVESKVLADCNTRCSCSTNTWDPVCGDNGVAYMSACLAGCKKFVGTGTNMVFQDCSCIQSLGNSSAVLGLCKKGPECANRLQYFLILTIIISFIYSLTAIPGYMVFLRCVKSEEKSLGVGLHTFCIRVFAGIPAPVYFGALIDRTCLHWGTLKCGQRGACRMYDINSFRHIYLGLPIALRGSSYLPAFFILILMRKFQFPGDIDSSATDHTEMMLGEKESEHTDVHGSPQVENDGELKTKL

[2] = biological target: T1, Solute carrier organic anion transporter family member 1A1; test: (§1) TP_TRANSPORTER: uptake in Oatp1-expressing HeLa cells; conditions: human
[3] = biological target: T2, Oatp1 (Solute carrier organic anion transporter family member 1A1) (Rattus norvegicus, UniProt P46720); test: TP_TRANSPORTER: inhibition of Enalapril uptake (Enalapril: ? uM, BSP-SG: 200 uM) in Oatp1-expressing HeLa cells; set-up: scale not given: the % may be the effect or the level left; conditions: human, probe Enalapril, read-out: Activity
T2 sequence (P46720 whole entry): T1 sequence (P46720 whole entry)

[4] = biological target: T2, Oatp1 (Solute carrier organic anion transporter family member 1A1); test: TP_TRANSPORTER: inhibition of Enalapril uptake (Enalapril: ? uM, E1S: 100 uM) in Oatp1-expressing HeLa cells; set-up: scale not given: the % may be the effect or the level left; conditions: human, probe Enalapril, read-out: Activity
[5] = substrate: CCOC(=O)[C@H](CCc1ccccc1)N[C@@H](C)C(=O)N1CCC[C@H]1C(=O)O; test: as §1

Molecule: O=C1OC(c2ccc(O)c(S(=O)(=O)O)c2)(c2ccc(O)c(S(=O)(=O)O)c2)c2c(Br)c(Br)c(Br)c(Br)c21 [SULFOBROMOPHTHALEIN SODIUM]
- Ki [1]: 1.98 µM

Molecule: Cc1nccc2c1[nH]c1cc(O)ccc12.O=S(=O)(O)O [HARMOL SULFATE]
- Activity [2]: is not a substrate [-]

B1: Solute carrier organic anion transporter family member 1A1 (Rattus norvegicus) (protein)
chain: T1 sequence (P46720 whole entry)
- Km [5]: 252 µM

Continued, values first:

- Activity [2]: is not a substrate [-]
Molecule: C[C@H](N[C@@H](CCc1ccccc1)C(=O)O)C(=O)N1CCC[C@H]1C(=O)O [ENALAPRILAT ANHYDROUS]

- Activity [2]: substrate [+]
- activity at 200 µM [3]: 78%
Molecule: N[C@@H](CCC(=O)N[C@@H](CSc1c(Br)c(Br)c2c(c1Br)C(=O)OC2(c1ccc(O)c(S(=O)(=O)O)c1)c1ccc(O)c(S(=O)(=O)O)c1)C(=O)NCC(=O)O)C(=O)O

- Activity [2]: substrate [+]
- activity at 100 µM [4]: 20%
Molecule: C[C@]12CC[C@@H]3c4ccc(OS(=O)(=O)O)cc4CC[C@H]3[C@@H]1CCC2=O [ESTRONE SULFURIC ACID]

Reference: ChEMBL document CHEMBL2074157, “The modified dipeptide, enalapril, an angiotensin-converting enzyme inhibitor, is transported by the rat liver organic anion transport protein” (Hepatology, 1998)
